The source made the active and inactive calls.
Assays:
[1] = target: Glyceraldehyde-3-phosphate dehydrogenase (Homo sapiens, UniProt P04406)
INS1 = test: beta cell apoptosis inhibitors, cytokine rescue, dose response, luminescence, retest (AID 449756); format: functional, cell-based; settings: Rattus norvegicus;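 also: cell death triggered by IL-1 beta plus TNF-alpha plus IFN-gamma mixture; protective hits raise ATP signal compared with cytokine alone wells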
[2] = target: ATP-dependent molecular chaperone HSP82 (Candida albicans (strain WO-1) (Yeast), UniProt C4YTQ8); test: loss of DOC-induced GRE-beta-galactosidase reporter signal, dose response, Hsp90 inhibitor project, S. cerevisiae, luminescence (AID 2400); format: functional, cell-based;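 also: beta-galactosidase luminescence from glucocorticoid response element reporter as proxy for Hsp90 function; inhibitor potency where signal loss means Hsp90 inhibition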
Sequence of ATP-dependent molecular chaperone HSP82 (C4YTQ8 whole entry): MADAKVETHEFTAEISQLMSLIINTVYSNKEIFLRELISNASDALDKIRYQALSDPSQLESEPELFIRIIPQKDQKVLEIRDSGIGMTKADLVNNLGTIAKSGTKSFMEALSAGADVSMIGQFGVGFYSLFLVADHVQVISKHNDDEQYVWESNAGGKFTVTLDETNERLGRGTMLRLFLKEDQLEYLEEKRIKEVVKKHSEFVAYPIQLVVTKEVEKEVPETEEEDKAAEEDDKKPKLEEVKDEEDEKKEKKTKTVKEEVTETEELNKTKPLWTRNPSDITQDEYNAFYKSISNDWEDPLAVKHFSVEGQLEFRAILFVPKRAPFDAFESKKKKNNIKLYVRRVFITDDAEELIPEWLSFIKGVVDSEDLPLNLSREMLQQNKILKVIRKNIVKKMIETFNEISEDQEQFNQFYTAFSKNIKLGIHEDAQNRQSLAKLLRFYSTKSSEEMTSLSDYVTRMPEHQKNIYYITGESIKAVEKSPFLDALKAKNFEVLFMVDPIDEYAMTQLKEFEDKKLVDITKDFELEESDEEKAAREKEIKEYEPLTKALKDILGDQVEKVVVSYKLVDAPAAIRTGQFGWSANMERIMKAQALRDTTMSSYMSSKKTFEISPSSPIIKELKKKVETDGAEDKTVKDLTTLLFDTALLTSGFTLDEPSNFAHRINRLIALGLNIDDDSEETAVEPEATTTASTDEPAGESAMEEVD

[3] = C. albicans growth with fluconazole, confirmation, fluorescence, retest (AID 2467); format: functional, cell-based
[4] = NIH-3T3 fibroblast cytotoxicity, dose response, cytotoxicity control, cell-based, fluorescence, Alamar Blue, secondary assay (AID 2327); format: functional;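 also: NIH-3T3 mouse fibroblasts cultured with fluconazole at 8 µg/mL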
[5] = target: T1, Serine/threonine-protein phosphatase (Candida dubliniensis (strain CD36 / CBS 7987 / NCPF 3949 / NRRLY-17841) (Yeast), UniProt B9W6M3); test: calcineurin pathway inhibitors in yeast reporter, dose response, S. cerevisiae, CDRE-lacZ, luminescence, secondary (AID 2388); format: functional, cell-based;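 also: yeast reporter cells carrying a calcineurin-responsive lacZ construct stimulated with calcium chloride; luminescent beta-galactosidase reporter signal in whole cells rather than isolated phosphatase activity; potency for inhibition where a drop in reporter signal means calcineurin blockade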
T1 sequence (B9W6M3 whole entry): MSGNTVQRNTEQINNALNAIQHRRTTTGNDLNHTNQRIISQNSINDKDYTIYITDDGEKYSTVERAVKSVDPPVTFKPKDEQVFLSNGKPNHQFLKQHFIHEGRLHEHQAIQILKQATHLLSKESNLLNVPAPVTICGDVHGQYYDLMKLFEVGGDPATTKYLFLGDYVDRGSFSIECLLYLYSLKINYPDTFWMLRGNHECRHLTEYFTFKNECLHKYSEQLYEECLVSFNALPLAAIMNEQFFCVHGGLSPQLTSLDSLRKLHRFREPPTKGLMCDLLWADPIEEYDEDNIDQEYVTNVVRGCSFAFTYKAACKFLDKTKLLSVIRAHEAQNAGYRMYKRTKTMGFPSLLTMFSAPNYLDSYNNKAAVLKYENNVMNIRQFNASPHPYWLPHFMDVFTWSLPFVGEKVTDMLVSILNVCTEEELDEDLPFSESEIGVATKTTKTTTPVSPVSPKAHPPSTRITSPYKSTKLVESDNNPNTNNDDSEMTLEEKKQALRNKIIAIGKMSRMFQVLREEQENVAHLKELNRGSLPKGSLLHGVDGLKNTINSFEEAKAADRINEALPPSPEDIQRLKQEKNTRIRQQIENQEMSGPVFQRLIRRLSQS

[6] = target: 72 kDa type IV collagenase (Homo sapiens, UniProt P08253); test: Dose Response validation of uHTS RPN11 inhibitor hits using a MMP-2 Fluorescence assay.; format: functional
Sequence of 72 kDa type IV collagenase (P08253 whole entry): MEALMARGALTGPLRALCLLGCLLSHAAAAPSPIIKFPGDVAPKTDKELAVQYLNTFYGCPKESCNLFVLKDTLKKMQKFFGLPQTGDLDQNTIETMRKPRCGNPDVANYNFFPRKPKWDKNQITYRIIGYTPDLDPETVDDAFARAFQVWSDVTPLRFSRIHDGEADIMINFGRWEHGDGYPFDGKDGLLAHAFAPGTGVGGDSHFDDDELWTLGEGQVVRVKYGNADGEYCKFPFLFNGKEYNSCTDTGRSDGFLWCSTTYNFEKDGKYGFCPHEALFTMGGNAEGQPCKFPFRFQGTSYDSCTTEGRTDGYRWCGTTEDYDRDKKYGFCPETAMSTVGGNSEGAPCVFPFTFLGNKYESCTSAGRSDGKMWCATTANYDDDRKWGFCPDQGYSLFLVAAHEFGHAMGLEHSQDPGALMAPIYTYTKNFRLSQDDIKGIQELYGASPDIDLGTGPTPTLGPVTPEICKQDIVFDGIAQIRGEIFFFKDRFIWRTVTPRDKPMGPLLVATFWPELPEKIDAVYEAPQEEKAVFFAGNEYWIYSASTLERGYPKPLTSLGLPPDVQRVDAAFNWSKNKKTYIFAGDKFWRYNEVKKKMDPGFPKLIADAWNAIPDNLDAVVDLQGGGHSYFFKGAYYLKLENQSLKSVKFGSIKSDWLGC

Prothrombin = Prothrombin (Bos taurus, UniProt P00735); test: thrombin inhibition, dose response, biochemical, fluorescence polarization, uHTS hits (AID 602369); format: functional
[7] = target: 26S proteasome non-ATPase regulatory subunit 14 (Homo sapiens, UniProt O00487); test: inhibition of proteasome subunit RPN11 – biochemical, fluorescence polarization, uHTS hits, confirmation (AID 602368); format: functional
Sequence of 26S proteasome non-ATPase regulatory subunit 14 (O00487 whole entry): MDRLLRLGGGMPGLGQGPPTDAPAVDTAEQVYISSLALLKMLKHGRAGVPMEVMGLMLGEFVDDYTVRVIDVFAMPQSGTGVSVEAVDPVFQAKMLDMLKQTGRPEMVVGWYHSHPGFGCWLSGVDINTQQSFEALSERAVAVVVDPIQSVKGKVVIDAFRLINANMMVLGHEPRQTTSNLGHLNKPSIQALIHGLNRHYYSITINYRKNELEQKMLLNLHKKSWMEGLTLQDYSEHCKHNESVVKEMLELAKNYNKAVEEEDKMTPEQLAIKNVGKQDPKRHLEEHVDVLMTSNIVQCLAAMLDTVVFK

[8] = target: T2, Rac GTPase-activating protein 1 (Homo sapiens, UniProt Q9H0H5); test: MgcRacGAP GTPase-activating activity inhibitors, confirmation, biochemical, ADP Hunter fluorescence, primary and confirmatory (AID 624330); format: functional
T2 sequence (Q9H0H5 whole entry): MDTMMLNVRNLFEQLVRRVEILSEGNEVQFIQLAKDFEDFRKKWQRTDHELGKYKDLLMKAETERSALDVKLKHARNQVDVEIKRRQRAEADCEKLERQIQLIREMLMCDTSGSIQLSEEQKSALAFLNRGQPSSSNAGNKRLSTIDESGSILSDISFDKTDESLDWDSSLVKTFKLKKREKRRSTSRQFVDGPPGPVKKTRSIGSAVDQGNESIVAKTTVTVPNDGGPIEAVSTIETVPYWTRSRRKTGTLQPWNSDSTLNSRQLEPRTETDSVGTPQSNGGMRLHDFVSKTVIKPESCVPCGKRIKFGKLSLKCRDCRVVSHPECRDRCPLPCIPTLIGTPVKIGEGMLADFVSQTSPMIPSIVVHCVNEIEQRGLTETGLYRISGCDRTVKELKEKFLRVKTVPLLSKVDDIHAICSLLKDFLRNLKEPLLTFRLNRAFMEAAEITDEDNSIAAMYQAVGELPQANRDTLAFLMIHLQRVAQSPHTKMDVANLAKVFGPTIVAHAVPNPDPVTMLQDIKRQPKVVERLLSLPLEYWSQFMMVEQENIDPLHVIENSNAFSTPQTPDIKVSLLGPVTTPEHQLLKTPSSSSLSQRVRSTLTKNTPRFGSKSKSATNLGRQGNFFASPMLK

[9] = tested on: Streptococcus sp. 'group A'; test: growth inhibition of control SK(-) GAS strain, dose response, counter-screen for streptokinase expression inhibitor project, luminescence, kanamycin, BacTiterGlo, confirmation (AID 1900); format: functional, organism-based
[10] = HeLa cell cytotoxicity, dose response, cytotoxicity control for MgcRacGAP inhibitor project (AID 624300); format: functional
Streptokinase A = target: T3, Streptokinase A (Streptococcus pyogenes serotype M1, UniProt P10520); test: S. pyogenes streptokinase expression inhibitors, potency, dose response, plasminogen activation absorbance, OD405 (AID 1914); format: functional, Streptococcus pyogenes M1 GAS;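 also: secreted streptokinase activity via plasminogen activation per viability signal from cell pellet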
T3 sequence (P10520 whole entry): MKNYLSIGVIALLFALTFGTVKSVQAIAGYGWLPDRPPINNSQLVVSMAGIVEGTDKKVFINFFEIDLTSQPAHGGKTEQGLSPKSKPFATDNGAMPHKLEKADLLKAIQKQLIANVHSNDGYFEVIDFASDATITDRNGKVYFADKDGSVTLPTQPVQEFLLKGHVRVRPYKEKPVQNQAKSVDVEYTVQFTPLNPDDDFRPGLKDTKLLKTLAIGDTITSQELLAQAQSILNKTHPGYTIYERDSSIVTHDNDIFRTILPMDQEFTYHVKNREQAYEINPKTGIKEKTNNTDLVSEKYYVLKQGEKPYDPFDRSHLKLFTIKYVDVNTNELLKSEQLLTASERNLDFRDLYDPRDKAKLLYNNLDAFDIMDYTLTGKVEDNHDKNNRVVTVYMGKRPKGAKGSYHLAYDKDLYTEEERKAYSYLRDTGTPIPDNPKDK

Streptococcus = test: Group A Streptococcus viability loss, dose response, counter-screen for streptokinase expression inhibitor project, luminescence, BacTiterGlo (AID 1915); format: functional, organism-based;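 also: potency for reduction of bacterial viability or growth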
H9c2 = test: cells; format: functional, cell-based; settings: Rattus norvegicus, H9c2, Myocardium;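 also: confirmatory concentration-response retest of ultra-high-throughput screening hits for modulation of myocardial damage; cell death induced by hydrogen peroxide oxidative stress; compound pretreatment for 60 min then peroxide exposure for 2 h; potency is for protecting the cells against peroxide damage rather than for killing them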

Sequence of Glyceraldehyde-3-phosphate dehydrogenase (P04406 whole entry): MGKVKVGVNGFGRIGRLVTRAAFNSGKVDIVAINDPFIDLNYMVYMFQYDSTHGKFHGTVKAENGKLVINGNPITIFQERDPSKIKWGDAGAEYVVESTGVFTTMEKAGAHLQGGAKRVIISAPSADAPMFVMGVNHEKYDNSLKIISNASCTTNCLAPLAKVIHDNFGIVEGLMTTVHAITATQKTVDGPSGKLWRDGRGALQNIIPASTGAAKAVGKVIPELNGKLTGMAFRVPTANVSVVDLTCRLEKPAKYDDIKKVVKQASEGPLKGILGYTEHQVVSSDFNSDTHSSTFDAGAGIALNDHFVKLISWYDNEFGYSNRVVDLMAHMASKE

| SMILES | EC50 [2] | EC50 [3] | EC50 [4] | EC50 [5] | IC50 [8] | also measured |
| --- | --- | --- | --- | --- | --- | --- |
| C[C@@H]1CN(C2=C(Cl)C(=O)N(c3ccc(Cl)nc3)C2=O)CCN1 | – | – | – | – | – | IC50 [1]: > 50 µM (inconclusive) |
| COc1ccc(C2C(C#N)=C(N)Oc3c2ccc2cccnc32)cc1OC (stereo not given) | > 150 µM (inactive) | 5.01 µM (active) | 19.1 µM (inconclusive) | > 180 µM (inactive) | – | AC50 (INS1): 6.75 µM (active) |
| CN1C=CC(=CC=C2C=CC(=O)C=C2)C=C1 | – | – | – | – | 18.4 µM (active) | IC50 [6]: > 100 µM (inactive); IC50 (Prothrombin): 62.7 µM (active); IC50 [7]: 31.2 µM (active) |
| CCOC(=O)c1c(N=C(S)NCC2CCCO2)sc(C)c1C (stereo not given) | 16.9 µM (active) | 0.635 µM (active) | > 150 µM (inactive) | > 180 µM (inactive) | – | – |
| COc1ccc(-n2c(/C=C/c3ccc(O)c(OC)c3)nc3ccccc3c2=O)cc1 | – | – | – | – | 52.4 µM (active) | EC50 [9]: 22 µM (active); CC50 [10]: 71 µM (active); EC50 (Streptokinase A): > 150 µM (not active); EC50 (Streptococcus): 26.5 µM (active); IC50 (H9c2): > 79 µM (inactive) |

Reference: ChEMBL document CHEMBL1201862, “PubChem BioAssay data set” (2004)
